Measurements from patent US12564595B2, “Prophylactic and therapeutic pharmaceutical agent for HIV infectious diseases characterized by comprising combination of integrase inhibitor and anti-HIV agent” (Shionogi & Co., Ltd., priority 2019, dated 2026).

Tested on: HIV
Test: microbe, parasite or virus in culture
Type: cell-based
Conditions: Human immunodeficiency virus 1, MT4, 96 h, read-out: EC50 (50% HIV inhibition concentration), MT-4 cells, HIV, cultured four days, MTT; compounds of formula (I) of (A)
Description: A serial dilution series of test samples was prepared in 96-well microplates (50 μL/well).
100 μL/well in each case were dispensed onto plates having test samples of 2.5×10^5/mL MT-4 cell suspension, and HIV virus solution was then dispensed thereto in the amount of 50 μL/well. Mixing was performed using a plate mixer and culturing was performed for four days in a CO2 incubator. MTT (3-(4,5-dimethylthiazol-2-yl)-2,5-diphenyltetrazolium bromide) liquid was dispensed into each well in the amount of 30 μL in each case. The reaction was conducted for 1 h in a CO2 incubator. 150 μL of supernatant were removed from each well, taking care not to aspirate any cells. 150 μL of cell solution were added, and thorough mixing was performed with a plate mixer until all the cells had been dissolved. The optical absorbance of the mixed plates was measured at two wavelengths: 560 nm/690 nm, with a microplate reader.

Structure (SMILES) | EC50
CCN1C(=O)c2c(O)c(=O)c(C(=O)NCc3ccc(F)cc3F)cn2N2[C@@H](C)c3cc(F)ccc3[C@@H]12 [II-140] | 670 pM
CN1C(=O)c2c(O)c(=O)c(-c3nnc(Cc4ccc(F)cc4F)s3)cn2N2C[C@@H]3CC[C@@H](C3)[C@@H]12 [II-138] | 140 pM
COC[C@@H]1CC[C@H]2N(C)C(=O)c3c(O)c(=O)c(C(=O)NCc4c(F)cc(F)cc4F)cn3N12 [II-157] | 700 pM
CCN1C(=O)c2c(O)c(=O)c(-c3nnc(Cc4ccc(F)cc4F)s3)cn2N2C[C@@H]3CC[C@@H](O3)[C@@H]12 [II-127] | 740 pM
CCN1C(=O)c2c(O)c(=O)c(-c3nnc(Cc4c(F)cc(F)cc4F)s3)cn2N2C[C@@H]3CC[C@@H](O3)[C@@H]12 [II-126] | 600 pM
CCN1C(=O)c2c(O)c(=O)c(-c3nnc(Cc4c(F)cc(F)cc4F)s3)cn2N2CC[C@H](C)C[C@@H]12 [II-147] | 1800 pM
CC(C)N1C(=O)c2c(O)c(=O)c(C(=O)NCc3c(F)cc(F)cc3F)cn2N2CCOC[C@@H]12 [II-022] | 390 pM
CCN1C(=O)c2c(O)c(=O)c(C(=O)NCc3cccc(C(F)(F)F)c3F)cn2N2CCCC[C@@H]12 [II-074] | 18000 pM
CC(C)N1C(=O)c2c(O)c(=O)c(C(=O)NCc3ccc(F)cc3F)cn2N2CCCC[C@@H]12 [Compound I-004] | 2500 pM
CCN1C(=O)c2c(O)c(=O)c(C(=O)NCc3ccc(C#N)cc3)cn2N2CCCC[C@@H]12 [II-090] | 18000 pM

Tested on: HIV mutant strain 1 (E138K/G140S/Q148H/N155H)
Test: Test Example 2: resistance evaluation test (HeLa-CD4 reporter), mutant strain 1
Type: cell-based
Conditions: FC=EC50 of mutant strain/EC50 of wild strain; HeLa-CD4 cells
Description: (§1) A serial dilution series of test samples in 96-well microplates was prepared (50 […]).
(§2) 2.5×10^4/mL of HeLa-CD4 cell suspension was dispensed into each of the microplates containing test sample, in the amount of 100 μL/well, and HIV virus liquid (wild strain and mutant strain) was then dispensed in an amount of 50 μL/well. Mixing was performed using a plate mixer and culturing was performed for three days in a CO2 incubator. After removing the cultured supernatant of each well by suction, 100 μL of the cell solution buffer in the reporter measurement kit was dispensed thereto, and freezing was conducted in a refrigerator (−80° C.). The plates frozen in the refrigerator were defrosted at room temperature, then mixed using a plate mixer and centrifuged for 5 min at 1,200 rpm. The supernatant of each well was divided to 96-well microplates (BLACK) in the amount of 20 μL in each case. The chemiluminescence reagent in the reporter assay kit was dispensed in the amount of 100 μL in each case, and, after reacting for about 1 h at room temperature, the amount of luminescence was measured using a MicroBeta TRILUX.
(§3) The degree of resistance (fold change (FC)) of each mutant strain was also calculated using the following formula. FC=EC50 of mutant strain/EC50 of wild strain (Results)
(§4) The results of the example compounds relating to formula (I) of (A) are shown below. The […] in respect of mutant strain 1 (E138K/G140S/Q148H/N155H) and the FC in respect of mutant strain 2 (E92Q/E138T/G140S/Q148H) are shown in the Table.

Structure (SMILES) | FC in respect of mutant strain 1 (E138K/G140S/Q148H/N155H)
CN1C(=O)c2c(O)c(=O)c(-c3nnc(Cc4ccc(F)cc4F)s3)cn2N2C[C@@H]3CC[C@@H](C3)[C@@H]12 [II-138] | 15
COC[C@@H]1CC[C@H]2N(C)C(=O)c3c(O)c(=O)c(C(=O)NCc4c(F)cc(F)cc4F)cn3N12 [II-157] | 53
CCN1C(=O)c2c(O)c(=O)c(-c3nnc(Cc4ccc(F)cc4F)s3)cn2N2C[C@@H]3CC[C@@H](O3)[C@@H]12 [II-127] | 7.9
CCN1C(=O)c2c(O)c(=O)c(-c3nnc(Cc4c(F)cc(F)cc4F)s3)cn2N2C[C@@H]3CC[C@@H](O3)[C@@H]12 [II-126] | 17
CCN1C(=O)c2c(O)c(=O)c(-c3nnc(Cc4c(F)cc(F)cc4F)s3)cn2N2CC[C@H](C)C[C@@H]12 [II-147] | 5.1

Tested on: HIV mutant strain 2 (E92Q/E138T/G140S/Q148H)
Test: Test Example 2: resistance evaluation test (HeLa-CD4 reporter), mutant strain 2
Type: cell-based
Conditions: FC=EC50 of mutant strain/EC50 of wild strain; HeLa-CD4 cells
Description: as §1, §2, §3, §4

Structure (SMILES) | FC in respect of mutant strain 2 (E92Q/E138T/G140S/Q148H)
CN1C(=O)c2c(O)c(=O)c(-c3nnc(Cc4ccc(F)cc4F)s3)cn2N2C[C@@H]3CC[C@@H](C3)[C@@H]12 [II-138] | 11
COC[C@@H]1CC[C@H]2N(C)C(=O)c3c(O)c(=O)c(C(=O)NCc4c(F)cc(F)cc4F)cn3N12 [II-157] | 24
CCN1C(=O)c2c(O)c(=O)c(-c3nnc(Cc4ccc(F)cc4F)s3)cn2N2C[C@@H]3CC[C@@H](O3)[C@@H]12 [II-127] | 19
CCN1C(=O)c2c(O)c(=O)c(-c3nnc(Cc4c(F)cc(F)cc4F)s3)cn2N2C[C@@H]3CC[C@@H](O3)[C@@H]12 [II-126] | 20
CCN1C(=O)c2c(O)c(=O)c(-c3nnc(Cc4c(F)cc(F)cc4F)s3)cn2N2CC[C@H](C)C[C@@H]12 [II-147] | 7.3

Tested on: not listed separately
Test: Test Example 8: metabolic stability test
Type: in vitro ADME, human
Conditions: pooled human liver microsomes, 30 min at 37° C., NADPH, compound concentration 0.5 μmol/L
Description: The extent of metabolization of the compound according to the present invention in the liver was evaluated by reacting commercially available pooled human liver microsomes with the compound according to the present invention for a fixed time and calculating the remaining percentage by comparing the reaction sample with an unreacted sample.
The reaction (oxidative reaction) was conducted for 0 min or 30 min at 37° C. in the presence of 1 mmol/L of NADPH, in a 0.2 mL buffer solution containing 0.5 mg of human liver microsome protein/mL (50 mmol/L Tris-HCl pH 7.4, 150 mmol/L potassium chloride, 10 mmol/L magnesium chloride). After the reaction, 50 μL of reaction liquid were added to 100 μL of methanol/acetonitrile=1/1 (v/v) solution, mixed, and centrifuged for 15 minutes at 3000 rpm. The compound according to the present invention in the centrifuged supernatant was quantified using LC/MS/MS or solid phase extraction (SPE)/MS; the residual amount of the compound according to the present invention after the reaction was calculated, taking the amount of the compound at the 0 min reaction point as 100%.

Structure (SMILES) | Remaining percentage
CN1C(=O)c2c(O)c(=O)c(-c3nnc(Cc4ccc(F)cc4F)s3)cn2N2C[C@@H]3CC[C@@H](C3)[C@@H]12 [II-138] | 93.9%
COC[C@@H]1CC[C@H]2N(C)C(=O)c3c(O)c(=O)c(C(=O)NCc4c(F)cc(F)cc4F)cn3N12 [II-157] | 90%
CCN1C(=O)c2c(O)c(=O)c(-c3nnc(Cc4ccc(F)cc4F)s3)cn2N2C[C@@H]3CC[C@@H](O3)[C@@H]12 [II-127] | 100%
CCN1C(=O)c2c(O)c(=O)c(-c3nnc(Cc4c(F)cc(F)cc4F)s3)cn2N2C[C@@H]3CC[C@@H](O3)[C@@H]12 [II-126] | 97.2%
CCN1C(=O)c2c(O)c(=O)c(-c3nnc(Cc4c(F)cc(F)cc4F)s3)cn2N2CC[C@H](C)C[C@@H]12 [II-147] | 91.5%
